The nature of series [1]: Profile of Mood State (POMS) rating scale, randomized 4-phase cross-over study, intravenous administration. The conditions noted are these: i.v.; for Rank order of ratings for Tension, Depression and Anger: three components of Dysphoria, same order in each case; for Vigor ratings: POMS Vigor-Activity. Format: in vivo, healthy male volunteers. The source says:
The Profile of Mood State (POMS) rating scale was used to estimate pharmacodynamic factors including Anger-Hostility, Confusion-Bewilderment, Depression-Dejection, Fatigue-Inertia, Tension-Anxiety, and Vigor-Activity. In addition composite scores were also produced for “Energy” (“Vigor-Activity” minus “Fatigue-Inertia”) and “Dysphoria” (“Anger-Hostility” plus “Depression-Rejection” plus “Tension-Anxiety”).

For series [2] the following is noted: plasma; i.v. 10 mg d1-MPH; 11 healthy male volunteers; mean ± SD; cited from earlier work.
The conditions of series [3]: after oral administration of the racemic drug; cited from earlier work.
The conditions of series [4]: oral, cited from earlier work.

Marks after values point to notes of the source that are not given here.

The values below come from patent publication US6395752B1, “Method of treating depression using 1-threo-methylphenidate” (Pharmaquest Limited, priority 1999, dated 2002).

As for `COC(=O)[C@@H](c1ccccc1)[C@@H]1CCCCN1` [1-MPH, 2S,2′S-methyl 2-phenyl-2-(2′-piperidyl) acetate], in series [1], the “Rank order of ratings for Tension, Depression and Anger” value (shortened to “Rank order of ratings for Tension”) is 1-MPH<placebo<d1-MPH<d-MPH. Moreover, the t1/2 in series [2] is given as 3.61 ± 1.12^b. Also, in series [3], the “Absolute bioavailability (F)” value is listed as 0.05.
As for `COC(=O)[C@H](c1ccccc1)[C@H]1CCCCN1` [d1-MPH, d1-threo-methylphenidate], in series [1] (healthy male volunteers), the Vigor ratings entry is “significantly different from those for 1-MPH and placebo”; the “Effect on "Energy" composite score” value was “enhanced”. Also, the “Rank order of ratings for Tension” value in series [1] is recorded as 1-MPH<placebo<d1-MPH<d-MPH. The “Hamilton depression scale decrease, subjects with minimal decrease” value in series [4] (3 subjects) is < 30%. Also, the “Hamilton depression scale decrease, subjects with marked decrease” value in series [4] (7 subjects) is listed as > 55%. For the same compound, the “Benefit in depressed patients” value in series [4] (older, medically ill depressed patients, n=16) was “statistically and clinically significant”.
In the case of `COC(=O)[C@H](c1ccccc1)[C@H]1CCCCN1` [d-MPH, d-threo-methylphenidate], in series [1] (healthy male volunteers), the Vigor ratings entry was “significantly different from those for 1-MPH and placebo”; the “Effect on "Energy" composite score” value is recorded as “not strongly energizing”; the “POMS rating for Fatigue-Inertia” value is recorded as “significantly different from those after 1-MPH”. In series [1], the “Rank order of ratings for Tension” value is listed as 1-MPH<placebo<d1-MPH<d-MPH.
